According to patent publication US10920230B2, “Methylotrophs for aquaculture and animal feed” (KnipBio, Inc., priority 2013, dated 2021):
≈ marks a conversion by molar mass, not a printed value.

What was measured:
[1] = test system: cumate inducible PmxaF promoter; assay: Fluorescence-based mCherry expression assay, pHC115m; type: cell-based, M. extorquens; details: uninduced 15.6±1.5
Protocol: Assays to measure levels of mCherry protein expression were performed as follows. For dose-dependent response curves, M. extorquens strains harboring pJP18T or pJP22T were grown to saturation in 10 mL of Hypho-succinate medium. These cultures were then diluted 1:200 in fresh medium, followed by 630 μL aliquots being dispensed to clear, flat-bottom, 48-well microtiter plates (Costar). Cultures were grown for 4 hours on a plate shaking tower (Caliper) at 150 rpm in a 30° C. humidified room. After 4 hours of growth, 10 μl of fresh medium containing Q or aTc was added to supply Q and aTc at desired concentrations. Cultures were allowed to continue growth for an additional 24 hours prior to fluorescence (excitation 587 nm/emission 610 nm) and optical density (600 nm) measurements made using a Tecan Safire2 plate reader. Relative fluorescence values reported are: Relative fluorescence (A.U.)=RFU/OD600*10^−3.

PR/cmtO promoter = assay: Fluorescence-based mCherry expression assay, pJP18T; type: cell-based, M. extorquens
Text: (§1) A desirable property for regulated expression systems is for levels of gene expression from the promoter to be proportional to the concentration of inducer. In order to explore the range of induction of PR/cmtO and PR/tetO, the promoters along with their respective regulatory proteins were introduced onto broad-host-range plasmids (IncP compatibility group) to create the expression vectors pLC290 and pLC291 (FIG. 8 in U.S. Ser. No. 61/863,701). […] We placed the red-fluorescent protein variant mCherry under the control of each promoter in pLC290 and pLC291 and introduced the resulting vectors (pJP18T and pJP22T) into M. extorquens. To induce expression from PR/cmtO and PR/tetO, we supplied varied concentrations of cumate (Q) and anhydrotetracycline (aTc), respectively, to M. extorquens cultures.
(§2) Assays to measure levels of mCherry protein expression were performed as follows. For dose-dependent response curves, M. extorquens strains harboring pJP18T or pJP22T were grown to saturation in 10 mL of Hypho-succinate medium. […] Cultures were allowed to continue growth for an additional 24 hours prior to fluorescence (excitation 587 nm/emission 610 nm) and optical density (600 nm) measurements made using a Tecan Safire2 plate reader. Relative fluorescence values reported are: Relative fluorescence (A.U.)=RFU/OD600*10^−3.

PR/tetO promoter = assay: Fluorescence-based mCherry expression assay, pJP22T; type: cell-based, M. extorquens
Text: as §1, §2

[2] = test system: wild-type B. fungorum LB400; assay: microbe, parasite or virus in culture; details: Paraburkholderia fungorum
Protocol: The minimal inhibitory concentration (MIC) of formaldehyde was determined by comparing the rate and extent of colony formation of wild-type B. fungorum LB400 to that of the flhA mutants CM363K.1 and CM363.1 on solid medium containing succinate as a growth substrate with various concentrations of formaldehyde. Formaldehyde was added to the plates immediately prior to the addition of the molten agar.

CC(C)c1ccc(C(=O)O)cc1 [Q, p-isopropyl benzoate]
relative fluorescence, induced [1]: 157.1±3.7 A.U.
induction (regulatory range) (PR/cmtO promoter; induced versus uninduced): 10 fold
relative fluorescence (crosstalk) (PR/tetO promoter; pJP22T with the non-cognate inducer, grown in succinate, uninduced 1.0): 1.1 A.U.

Cc1c2c(c(O)c3c(O)cccc13)C(=O)[C@]1(O)C(=O)C(C(N)=O)=C(O)[C@@H](N(C)C)[C@@H]1C2 [aTc, anhydrotetracycline]
relative fluorescence (crosstalk) (PR/cmtO promoter; pJP18T with the non-cognate inducer, grown in succinate, uninduced 4.6): 4.2 A.U.
induction (regulatory range) (PR/tetO promoter; induced versus uninduced): 30 fold

C=O [formaldehyde]
MIC [2]: 200 µM (≈ 6.01 µg/mL)
